Measured values published in patent US20110244569A1, “METHOD OF INDUCING PROLIFERATION AND/OR DIFFERENTIATION OF NEURAL PRECURSOR CELLS BY INTRODUCING PROLACTIN OR WNT3A TO ACTIVATE LATENT NEURAL PRECURSOR CELLS” (priority 2008, published 2011).
Structures can show the parent of a compound that is named as a salt.

Legend:
[1] = test system: primary hippocampal cells; test: Primary neurosphere culture, hippocampus; assay type: cell-based, mouse; conditions: for generation of very large neurospheres (>250 μm) passaged long-term / increase in number of hippocampal neurospheres generated / number of hippocampal neurospheres: 1 ng/mL Wnt3a or 2 ng/mL PRL; for number of hippocampal neurospheres: n=3; for neurosphere number, aged hippocampus: aged (18 month old) hippocampus, n=4
Method: The tissue was enzymatically digested with 0.1% trypsin-EDTA (Gibco/Invitrogen, Eugene, Oreg.) for 7 minutes at 37° C., followed by a wash with 0.014% w/v trypsin inhibitor (type I-S from soybean; Sigma-Aldrich Australia, Sydney, Australia) dissolved in Hepes-buffered minimum essential medium (HEM), which consisted of minimum essential medium (Gibco/Invitrogen) supplemented with 16 mM HEPES (Sigma-Aldrich Australia) and 100 units/ml penicillin/streptomycin (Gibco/Invitrogene). The tissue was centrifuged at 100 rcf for 7 minutes, following which the pellet was resuspended in 1 ml neurosphere growth medium, mechanically triturated until smooth, then filtered through a 40 μm cell sieve (Falcon/BD Biosciences Australia, North Ryde, Australia). The neurosphere growth medium consisted of mouse NeuroCult™ NSC Basal Medium plus mouse NeuroCult™ NSC Proliferation Supplements (StemCell Technologies, Vancouver, Canada) with 2% bovine serum albumin (Roche, Basel, Switzerland) and 2 μg/ml heparin (Sigma-Aldrich Australia). The following growth factors were also included: 20 ng/ml purified mouse receptor-grade EGF (BD Biosciences Australia) and 10 ng/ml recombinant bovine FGF-2 (Roche). After centrifugation at 100 rcf for 7 minutes, the cells were plated at a density of approximately one hippocampus, SVZ or cortex or four olfactory bulbs per 96-well plate (Falcon/BD Biosciences Australia) with 200 μl neurosphere medium per well.
The neurosphere growth medium already contained 4.18 mM KCl. […] This level of potassium is around five times that of the normal physiological concentration of potassium, ˜4 mM. Nicardipine (Sigma-Aldrich), when used, was added to a final concentration of 10 μM. BaCl was used as an alternative to KCl in some experiments at a concentration of 1 mM and GABA at 100 μM. Recombinant mouse Wnt3a (R&D Systems) and recombinant mouse prolactin (PRL; R&D Systems) were added instead of KCl in some experiments at concentrations of 1 ng/mL and 2 ng/mL respectively.
(§1) Primary hippocampal cells were incubated for 10 days, and SVZ, olfactory bulb or cortical cells for 7 days, in humidified 5% CO2 to permit neurosphere formation. The primary neurospheres were then counted and collected for passaging or differentiation. Results of the neurosphere counts were expressed as mean±standard error and statistical analysis was performed using a standard t-Test (two sample assuming equal variance).

cortical cells = test: Primary neurosphere culture, cortex; assay type: cell-based, mouse; conditions: depolarization vs control
Method: (§2) Adult (6-8 week old) male C57/B16 mice were killed by cervical dislocation, their brains immediately removed and the hippocampus, SVZ, olfactory bulb or cortex dissected. The tissue was enzymatically digested with 0.1% trypsin-EDTA (Gibco/Invitrogen, Eugene, Oreg.) for 7 minutes at 37° C., followed by a wash with 0.014% w/v trypsin inhibitor (type I-S from soybean; Sigma-Aldrich Australia, Sydney, Australia) dissolved in Hepes-buffered minimum essential medium (HEM), which consisted of minimum essential medium (Gibco/Invitrogen) supplemented with 16 mM HEPES (Sigma-Aldrich Australia) and 100 units/ml penicillin/streptomycin (Gibco/Invitrogene). The tissue was centrifuged at 100 rcf for 7 minutes, following which the pellet was resuspended in 1 ml neurosphere growth medium, mechanically triturated until smooth, then filtered through a 40 μm cell sieve (Falcon/BD Biosciences Australia, North Ryde, Australia). […]
as §1

[2] = test system: primary hippocampal cells; test: Microarray analysis after KCl depolarization; assay type: cell-based, mouse; conditions: following depolarization, P<0.001
Method: Hippocampal tissue was dissected and dissociated as described above and incubated either in the presence or absence of 15 mM KCl for 24 hours. Cells were pelleted and total RNA was isolated using the RNeasy mini kit (Qiagen) and quantitated using the Bioanalyzer 2100 (Agilent). aRNA was prepared from 500 ng of RNA using the Message-Amp™-II Biotin Enhanced Kit (Ambion). A total of 15 μg biotinylated aRNA was fragmented and run on a GeneChip mouse Genome 430A 2.0 Array (Affymetrix) in accordance with the manufacturer's instructions.

hippocampal neurospheres = test: Hippocampal neurosphere passaging; assay type: cell-based, mouse
Method: Primary neurospheres from the unstimulated hippocampus were also passaged as single spheres.
Hippocampal neurosphere cultures were initiated by removing 150 μl of the medium from wells containing single neurospheres, treating with 100 μl 0.1% trypsin-EDTA for 2 minutes at room temperature, followed by washing with 100 μl trypsin inhibitor in HEM. The neurospheres were mechanically triturated until dissociated and replated in well plates in 2 ml of complete medium. Neurospheres were passaged every 10 days by centrifuging the neurospheres, removing the medium and incubating in 1 ml of 0.1% trypsin-EDTA for 2 minutes at room temperature. After the addition of an equal volume of trypsin inhibitor, the neurospheres were centrifuged at 100 rcf for 5 minutes and the supernatant removed. Cells were mechanically triturated in 500 μl of complete medium and trypan blue staining was used to evaluate the number of cells, both viable and total number, on a hemocytometer. The passaged cells were then re-plated with complete medium at a density of 1×10^4 cells/cm^2 in tissue culture flasks (Nunc, Rochester, N.Y.) or tissue culture plates (Falcon/BD Biosciences) as appropriate.

olfactory bulb cells = test: Primary neurosphere culture, olfactory bulb; assay type: cell-based, mouse; conditions: potassium-activated vs control
Method: as §2, §1

SVZ cells = test: Primary neurosphere culture, SVZ; assay type: cell-based, mouse; conditions: for number of SVZ-derived neurospheres: 1 ng/mL Wnt3a or 2 ng/mL PRL, n=2
Method: Adult (6-8 week old) male C57/B16 mice were killed by cervical dislocation, their brains immediately removed and the hippocampus, SVZ, olfactory bulb or cortex dissected. The tissue was enzymatically digested with 0.1% trypsin-EDTA (Gibco/Invitrogen, Eugene, Oreg.) for 7 minutes at 37° C., followed by a wash with 0.014% w/v trypsin inhibitor (type I-S from soybean; Sigma-Aldrich Australia, Sydney, Australia) dissolved in Hepes-buffered minimum essential medium (HEM), which consisted of minimum essential medium (Gibco/Invitrogen) supplemented with 16 mM HEPES (Sigma-Aldrich Australia) and 100 units/ml penicillin/streptomycin (Gibco/Invitrogene). The tissue was centrifuged at 100 rcf for 7 minutes, following which the pellet was resuspended in 1 ml neurosphere growth medium, mechanically triturated until smooth, then filtered through a 40 μm cell sieve (Falcon/BD Biosciences Australia, North Ryde, Australia). The neurosphere growth medium consisted of mouse NeuroCult™ NSC Basal Medium plus mouse NeuroCult™ NSC Proliferation Supplements (StemCell Technologies, Vancouver, Canada) with 2% bovine serum albumin (Roche, Basel, Switzerland) and 2 μg/ml heparin (Sigma-Aldrich Australia). The following growth factors were also included: 20 ng/ml purified mouse receptor-grade EGF (BD Biosciences Australia) and 10 ng/ml recombinant bovine FGF-2 (Roche). After centrifugation at 100 rcf for 7 minutes, the cells were plated at a density of approximately one hippocampus, SVZ or cortex or four olfactory bulbs per 96-well plate (Falcon/BD Biosciences Australia) with 200 μl neurosphere medium per well.
The neurosphere growth medium already contained 4.18 mM KCl. […]
as §1

[3] = test system: latent precursor cell population; test: Neurosphere culture of FACS-sorted Emx1-GFP / GFAP-GFP cells; assay type: cell-based, mouse
Method: DCX-GFP, Emx1-GFP and GFAP-GFP mice are from the Mutant Mouse Regional Resource Center, The Gene Expression Nervous System Atlas BAC transgenic project (Gong et al., 2002).
Brains were collected and processed. GFP^+ve cells were separated by fluorescence-activated cell sorting (FACS) using a FACS Vantage cell sorter (BD Biosciences). A wild-type littermate control was used to determine background fluorescence levels. For primary neurosphere cultures the cells were plated at a density of 500 cells/well in 96-well plates (Falcon/BD Biosciences, San Jose, Calif.) with 0.2 ml complete medium per well. Complete medium consisted of mouse NeuroCult™ NSC Basal Medium plus mouse NeuroCult™ NSC Proliferation Supplements (StemCell Technologies,
Vancouver, Canada) with 2% bovine serum albumin (Roche, Basel, Switzerland) and 2 μg/ml heparin (Sigma-Aldrich). The following growth factors were also included: 20 ng/ml purified mouse receptor-grade epidermal growth factor (EGF; BD Biosciences Australia) and 10 ng/ml recombinant bovine basic fibroblast growth factor (FGF-2; Roche). Primary cells were incubated for 7 days in humidified 5% CO2 to permit neurosphere formation. The primary neurospheres were then counted and collected for passaging or differentiation. Results of the neurosphere counts were expressed as mean+ or −standard error and statistical analysis was performed using a standard t-Test (two sample assuming equal variance).

C57BL/6 male mice = test: Pilocarpine-induced seizures; assay type: in vivo, mouse; conditions: 350 mg/kg intraperitoneal
Method: Seizures were induced in 6-8 week old C57BL/6 male mice by the administration of pilocarpine, a muscarinic cholinergic agonist. Thirty minutes prior to pilocarpine administration, the mice were injected with 2.5 mg/kg of the cholinergic antagonist scopolamine methyl nitrate (Sigma-Aldrich) to reduce peripheral cholinergic effects. They then received intraperitoneal injections of 350 mg/kg pilocarpine hydrochloride (Sigma-Aldrich). […] Seizures were stopped 2 hours after status epilepticus onset, with an intraperitoneal injection of 5 mg/kg diazepam ([…], Parnell Laboratories Sydney, Australia).

adult female mice = conditions: infusion, cited from earlier work
SVZ-derived neurospheres = conditions: cited from earlier work
[4] = 10 nM and 30 nM PRL in presence of EGF

## [Ba+2].[Cl-].[Cl-] [BaCl2, barium chloride]
[1]; 1 mM BaCl2
  increase in numbers of neurospheres: over 2 fold

## [Cl-].[K+] [KCl, potassium chloride]
Cortical cells
  increase in cortex neurosphere number: over 3 fold
[2]
  up-regulation of PRL: 6.4 fold
  up-regulation of Wnt3a: 14.4 fold
[1]; 20 mM KCl vs control (4 mM) potassium or sodium osmotic control, adult mouse
  increase in number of neurospheres generated: over 3 fold
[1]; 18 month old hippocampus, depolarizing conditions
  increase in number of neurospheres, stimulated vs control: over 12 fold
[1]; KCl as low as 10 mM and as high as 30 mM
  effect on number of neurospheres generated: significantly increase the number of neurospheres generated
[1]; KCl dose response assay
  optimal depolarizing level: 15 mM
[1]; R6/1 Huntington's disease mice, 33 weeks, potassium depolarization in vitro
  further increase of 33 week HD hippocampal precursors: could not be further increased
[1]; depolarizing levels of potassium added in vitro after status epilepticus
  further stimulation of precursors from mice that underwent SE: no further stimulatory effect
Hippocampal neurospheres; all twenty three
  diameter of stimulated neurospheres capable of long term passage: > 110 μm
Hippocampal neurospheres; potassium stimulated, standard conditions 0/113
  large primary spheres that could be expanded in culture for up to 10 passages: 23 out of 64
Olfactory bulb cells
  increase in number of olfactory bulb neurospheres: over 3 fold
  size of activated olfactory-bulb neurospheres: significant increase in the size
SVZ cells; potassium-induced depolarization, adult SVZ
  decrease in neurosphere number: approx 40%
[3]; Emx1+ve cells + KCL
  SFU: 1/37
[3]; Emx1-ve cells + KCL
  SFU: 1/10896
[3]; GFAP+ve cells + KCL
  SFU: 1/127
[3]; GFAP-ve cells + KCL
  SFU: 1/2220

## CC[C@@H]1C(=O)OC[C@@H]1Cc1cncn1C [pilocarpine, pilocarpine hydrochloride]
C57BL/6 male mice
  mice in which seizures were observed: 70%
  seizing mice that entered status epilepticus: 35%
  time to status epilepticus after injection: 78 ± 43 min

## Wnt3a
[1]
  generation of very large neurospheres (>250 μm) passaged long-term: generation of a number of the very large neurospheres
  increase in number of hippocampal neurospheres generated: 2 fold
  number of hippocampal neurospheres: 204±66.1 % of control
  neurosphere number, aged hippocampus: 580±230 % of control
SVZ cells
  number of SVZ-derived neurospheres: 98.5±4.5 % of control

B1: PRL: recombinant mouse prolactin (PRL; R&D Systems) (protein, UniProt P06879 30-226, looked up)
Prolactin: LPICSAGDCQTSLRELFDRVVILSHYIHTLYTDMFIEFDKQYVQDREFMVKVINDCPTSSLATPEDKEQALKVPPEVLLNLILSLVQSSSDPLFQLITGVGGIQEAPEYILSRAKEIEEQNKQLLEGVEKIISQAYPEAKGNGIYFVWSQLPSLQGVDEESKILSLRNTIRCLRRDSHKVDNFLKVLRCQIAHQNNC
Adult female mice; after 4 weeks
  number of new olfactory interneurons: doubled
Adult female mice; US 2003/0054998
  BrdU-labeled cells in the forebrain SVZ: increased
Adult female mice
  number of proliferating cells in hippocampal dentate gyrus: no effect
SVZ-derived neurospheres; 1 nM PRL
  effect on number of SVZ-derived neurospheres: no effect
SVZ-derived neurospheres; [4]
  increase in number of neurons per neurosphere: two-fold
  increase in numbers of SVZ-derived neurospheres: up to 35%
SVZ-derived neurospheres; without EGF, US 2003/0054998
  number of neurospheres in vitro, prolactin alone: did not significantly increase
[1]
  generation of very large neurospheres (>250 μm) passaged long-term: generation of a number of the very large neurospheres
  increase in number of hippocampal neurospheres generated: 2 fold
  number of hippocampal neurospheres: 217±13 % of control
  neurosphere number, aged hippocampus: 254±23 % of control
SVZ cells
  number of SVZ-derived neurospheres: 100±9 % of control
